Reference: US11807693B2 (priority 2014, dated 2023)
Starred links: 1 amine or outer side, 2 acyl side, 3 side chain; linkers in the order of their positions; H or OH if unused. Non-standard residues stand in square brackets, D forms with d. Residues, ends and D or L forms follow the SMILES beside them. *: point of attachment. dBip = N[C@H](Cc1ccc(-c2ccccc2)cc1)C(=O)O; Oic = O=C(O)[C@@H]1C[C@@H]2CCCC[C@@H]2N1; Phe(4-Cl) = N[C@@H](Cc1ccc(Cl)cc1)C(=O)O; dPhe(4-Cl) = N[C@H](Cc1ccc(Cl)cc1)C(=O)O; Phe(4-I) = N[C@@H](Cc1ccc(I)cc1)C(=O)O; γGlu = O=C(O)[C@H](CCC(=O)[*:2])N[*:1]; NMeR = CN[C@@H](CCCNC(=N)N)C(=O)O; Tridecanoyl = CCCCCCCCCCCCC(=O)*; hArg = N=C(N)NCCCC[C@H](N)C(=O)O; Cha = N[C@@H](CC1CCCCC1)C(=O)O; αMeL = CC(C)C[C@](C)(N)C(=O)O; Tle = CC(C)(C)[C@H](N)C(=O)O; αMeP = C[C@@]1(C(=O)O)CCCN1; Pip = O=C(O)[C@@H]1CCCCN1; β3hS = N[C@@H](CO)CC(=O)O; Nle = CCCC[C@H](N)C(=O)O; AEEA = NCCOCCOCC(=O)O; βAla = NCCC(=O)O

Target: T1, human APJ receptor (Homo sapiens, UniProt P35414)
T1 construct: expressed in transfected cells
T1 sequence (P35414 1-380): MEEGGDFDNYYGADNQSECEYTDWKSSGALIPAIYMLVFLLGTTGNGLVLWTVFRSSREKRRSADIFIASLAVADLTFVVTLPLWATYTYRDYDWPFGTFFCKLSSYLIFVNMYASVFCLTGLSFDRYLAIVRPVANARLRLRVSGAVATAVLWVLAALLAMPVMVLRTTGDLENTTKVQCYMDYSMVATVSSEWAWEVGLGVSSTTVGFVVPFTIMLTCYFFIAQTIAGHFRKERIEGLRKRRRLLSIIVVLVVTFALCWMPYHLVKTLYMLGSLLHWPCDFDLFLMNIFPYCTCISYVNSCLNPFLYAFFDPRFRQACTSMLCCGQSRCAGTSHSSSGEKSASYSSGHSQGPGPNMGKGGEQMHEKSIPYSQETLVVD
Experiment: [35S] GTPγS assay, human APJ receptor
Type: biochemical
Conditions: not given

SMILES | EC50 [nM]
CC(=O)N[C@@H](CCCCNC(=N)N)C(=O)N[C@@H](CCCCNC(=N)N)C(=O)N[C@@H](CCC(N)=O)C(=O)N[C@H](CCCNC(=N)N)C(=O)N1CCC[C@H]1C(=O)N(C)[C@@H](CCCNC(=N)N)C(=O)N[C@@H](CC1CCCCC1)C(=O)N[C@@H](CO)C(=O)N[C@@H](Cc1c[nH]cn1)C(=O)N[C@@H](CCCCN)C(=O)NCC(=O)N1[C@H](C(=O)N[C@@H](Cc2ccc(I)cc2)C(=O)N2CCC[C@H]2C(=O)N[C@H](Cc2ccc(-c3ccccc3)cc2)C(=O)O)C[C@@H]2CCCC[C@@H]21 [compound 22] (Ac-[hArg][hArg]Q[dR]P[NMeR][Cha]SHKG[Oic][Phe(4-I)]P[dBip]-OH) | 1.52

Same assay, conditions: Table 16

SMILES | EC50 [nM]
CCCCCCCCCCCCC(=O)N[C@@H](CCC(=O)NCCOCCOCC(=O)NCCOCCOCC(=O)N[C@@H](CCC(N)=O)C(=O)N[C@@H](CCCNC(=N)N)C(=O)N1CCC[C@H]1C(=O)N(C)[C@@H](CCCNC(=N)N)C(=O)N[C@@H](CC1CCCCC1)C(=O)N[C@@H](CO)C(=O)N[C@@H](Cc1c[nH]cn1)C(=O)N[C@@H](CCCCN)C(=O)NCC(=O)N1CCCC[C@H]1C(=O)N[C@@H](CCCC)C(=O)N1CCC[C@H]1C(=O)N[C@@H](Cc1ccc(Cl)cc1)C(=O)O)C(=O)O [compound 416] ({Tridecanoyl-γGlu-AEEA-AEEA}-QRP[NMeR][Cha]SHKG[Pip][Nle]P[Phe(4-Cl)]-OH) | 0.192
CCCCCCCCCCCCC(=O)N[C@@H](CCC(=O)NCCOCCOCC(=O)NCCOCCOCC(=O)N[C@@H](CCC(N)=O)C(=O)N[C@@H](CCCNC(=N)N)C(=O)N1CCC[C@H]1C(=O)N(C)[C@@H](CCCNC(=N)N)C(=O)N[C@@H](CC1CCCCC1)C(=O)N[C@@H](CO)C(=O)N[C@@H](C)C(=O)N[C@@H](CCCCN)C(=O)NCC(=O)N1[C@H](C(=O)N[C@@H](CCCC)C(=O)N2CCC[C@H]2C(=O)N[C@@H](Cc2ccc(Cl)cc2)C(=O)O)C[C@@H]2CCCC[C@@H]21)C(=O)O [compound 419] ({Tridecanoyl-γGlu-AEEA-AEEA}-QRP[NMeR][Cha]SAKG[Oic][Nle]P[Phe(4-Cl)]-OH) | 0.484
CCCCCCCCCCCCC(=O)N[C@@H](CCC(=O)NCCOCCOCC(=O)NCCOCCOCC(=O)N[C@@H](CCC(N)=O)C(=O)N[C@@H](CCCNC(=N)N)C(=O)N1CCC[C@H]1C(=O)N(C)[C@@H](CCCNC(=N)N)C(=O)N[C@@H](CC1CCCCC1)C(=O)N[C@@H](CO)C(=O)N[C@H](C(=O)N[C@@H](CCCCN)C(=O)NCC(=O)N1[C@H](C(=O)N[C@@H](CCCC)C(=O)N2CCC[C@H]2C(=O)N[C@@H](Cc2ccc(Cl)cc2)C(=O)O)C[C@@H]2CCCC[C@@H]21)C(C)(C)C)C(=O)O [compound 438] ({Tridecanoyl-γGlu-AEEA-AEEA}-QRP[NMeR][Cha]S[Tle]KG[Oic][Nle]P[Phe(4-Cl)]-OH) | 1.49
CCCCCCCCCCCCC(=O)N[C@@H](CCC(=O)NCCOCCOCC(=O)NCCOCCOCC(=O)N[C@H](CCC(N)=O)C(=O)N[C@@H](CCCCNC(=N)N)C(=O)N1CCC[C@H]1C(=O)N(C)[C@@H](CCCNC(=N)N)C(=O)N[C@@H](CC1CCCCC1)C(=O)N[C@@H](CO)C(=O)N[C@@H](Cc1c[nH]cn1)C(=O)N[C@@H](CCCCN)C(=O)NCCC(=O)N1[C@H](C(=O)N[C@@H](CCCC)C(=O)N2CCC[C@H]2C(=O)N[C@H](Cc2ccc(Cl)cc2)C(=O)O)C[C@@H]2CCCC[C@@H]21)C(=O)O [compound 294] ({Tridecanoyl-γGlu-AEEA-AEEA}-[dQ][hArg]P[NMeR][Cha]SHK[βAla][Oic][Nle]P[dPhe(4-Cl)]-OH) | > 4170
CCCCCCCCCCCCC(=O)N[C@@H](CCC(=O)NCCOCCOCC(=O)NCCOCCOCC(=O)N[C@H](CCC(N)=O)C(=O)N[C@@H](CCCNC(=N)N)C(=O)N1CCC[C@H]1C(=O)N(C)[C@@H](CCCNC(=N)N)C(=O)N[C@@](C)(CC(C)C)C(=O)N[C@@H](CO)CC(=O)N[C@@H](Cc1c[nH]cn1)C(=O)N[C@@H](CCCCN)C(=O)NCC(=O)N1[C@H](C(=O)N[C@@H](CCCC)C(=O)N2CCC[C@@]2(C)C(=O)N[C@@H](Cc2ccc(Cl)cc2)C(=O)O)C[C@@H]2CCCC[C@@H]21)C(=O)O [compound 518] ({Tridecanoyl-γGlu-AEEA-AEEA}-[dQ]RP[NMeR][αMeL][β3hS]HKG[Oic][Nle][αMeP][Phe(4-Cl)]-OH) | 0.113
CCCCCCCCCCCCC(=O)N[C@@H](CCC(=O)NCCOCCOCC(=O)NCCOCCOCC(=O)N[C@@H](CCC(N)=O)C(=O)N[C@@H](CCCCNC(=N)N)C(=O)N1CCC[C@H]1C(=O)N(C)[C@@H](CCCNC(=N)N)C(=O)N[C@@H](CC1CCCCC1)C(=O)N[C@@H](CO)C(=O)N[C@@H](Cc1c[nH]cn1)C(=O)N[C@@H](CCCCN)C(=O)NCC(=O)N1CCC[C@H]1C(=O)N[C@@H](CCCC)C(=O)N1CCC[C@H]1C(=O)N[C@@H](Cc1ccc(Cl)cc1)C(=O)O)C(=O)O [compound 408] ({Tridecanoyl-γGlu-AEEA-AEEA}-Q[hArg]P[NMeR][Cha]SHKGP[Nle]P[Phe(4-Cl)]-OH) | 0.0768

Tested on: not listed separately
Experiment: In vitro stability in rat plasma
Type: in vitro ADME
Conditions: not given
Summary of the method: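 Stability was followed for 4 hr at 37° C. after spiking peptides (5 μM final) into rat plasma and tissue homogenates. Methanol quench with internal standard preceded high resolution LC-MS.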

SMILES | remaining at 4 h, 5 μM [%]
CCCCCCCCCCCCC(=O)N[C@@H](CCC(=O)NCCOCCOCC(=O)NCCOCCOCC(=O)N[C@@H](CCC(N)=O)C(=O)N[C@@H](CCCNC(=N)N)C(=O)N1CCC[C@H]1C(=O)N(C)[C@@H](CCCNC(=N)N)C(=O)N[C@@H](CC1CCCCC1)C(=O)N[C@@H](CO)C(=O)N[C@@H](Cc1c[nH]cn1)C(=O)N[C@@H](CCCCN)C(=O)NCC(=O)N1CCCC[C@H]1C(=O)N[C@@H](CCCC)C(=O)N1CCC[C@H]1C(=O)N[C@@H](Cc1ccc(Cl)cc1)C(=O)O)C(=O)O [compound 416] ({Tridecanoyl-γGlu-AEEA-AEEA}-QRP[NMeR][Cha]SHKG[Pip][Nle]P[Phe(4-Cl)]-OH) | 57.7
